According to US20170022201A1, “MACROCYLIC PYRIDINE DERIVATIVES” (Janssen Pharmaceutica NV, priority 2014, published 2017):

Tests used:
[1] = target: T1, EF2K (Homo sapiens, UniProt O00418); experiment: Biochemical EF2K lysate-based kinase assay (AlphaLISA p-eEF2 Thr56); settings: LN-229 cell lysates, 10 mM ATP, pH 6.6; pIC50 = -log IC50 (M); read-out: eEF2K_C_alphalisa pIC50 (converted)
T1 construct: host or cells: LN-229 glioblastoma cell lysate
T1 sequence (O00418 1-725): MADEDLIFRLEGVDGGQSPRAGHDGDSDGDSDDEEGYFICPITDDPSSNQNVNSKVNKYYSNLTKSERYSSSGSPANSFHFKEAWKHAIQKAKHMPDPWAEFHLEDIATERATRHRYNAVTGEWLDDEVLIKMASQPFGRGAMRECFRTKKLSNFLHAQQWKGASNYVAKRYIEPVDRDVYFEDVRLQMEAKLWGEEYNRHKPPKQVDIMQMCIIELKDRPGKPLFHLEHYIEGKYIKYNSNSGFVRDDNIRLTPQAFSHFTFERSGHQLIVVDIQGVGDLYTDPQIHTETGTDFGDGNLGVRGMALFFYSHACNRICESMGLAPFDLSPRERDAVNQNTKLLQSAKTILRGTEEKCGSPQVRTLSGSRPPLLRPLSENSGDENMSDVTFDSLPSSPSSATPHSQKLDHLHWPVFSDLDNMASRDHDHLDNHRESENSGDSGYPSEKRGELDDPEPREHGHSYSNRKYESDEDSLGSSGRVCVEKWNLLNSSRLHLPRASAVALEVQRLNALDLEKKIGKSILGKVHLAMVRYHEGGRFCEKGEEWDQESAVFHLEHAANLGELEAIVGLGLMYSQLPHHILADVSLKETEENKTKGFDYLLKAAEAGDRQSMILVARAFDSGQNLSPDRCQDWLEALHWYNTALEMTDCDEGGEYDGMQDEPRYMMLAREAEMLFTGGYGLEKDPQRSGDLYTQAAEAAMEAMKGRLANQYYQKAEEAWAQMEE
From the text: LN-229 cells were purchased from ATCC (CRL-2611); these are glioblastoma cells. Cell lysates from LN229 were used in this kinase assay to provide both the kinase and the substrate (EF2). The AlphaLISA p-eEF2 (Thr56) detection assay was developed using a sandwich assay format with two specific antibodies recognizing different epitopes of the target, including one antibody against the phosphorylation site of interest. One anti-eEF2 antibody was conjugated onto AlphaLISA Acceptor beads, while the second antibody was biotinylated and captured by streptavidin coated Donor beads.
Compound was mixed with LN-229 cell lysates in the presence of a kinase buffer (e.g. HEPES) at a pH of 6.6, containing 10 mM Mg^2+ (e.g. magnesium acetate) and 10 mM adenosine-tri-phosphate (ATP) and incubated at room temperature for 15 minutes. The kinase reaction was stopped with excess ethylenediaminetetraacetic acid disodium salt and the biotinylated-anti phospho eEF2 antibody (3 nM) was added for 1 hour. Then the anti-EF2 acceptor beads (10 μg/ml) as well as the streptavidin coated donor beads (20 μg/ml) were added for 1 hour, and the AlphaLISA signal was measured in an Envision instrument once, left overnight, and measured again for the final read.

[2] = target: T2, eEF2K (Homo sapiens, UniProt O00418); experiment: EF2K cell-based assay (P-EF2 AlphaLISA, 2-deoxyglucose stimulated MCF10A cells); settings: 2.5 mM 2-deoxyglucose 4 h, phosphorylation of EF2 at Thr 56, pIC50 = -log IC50 (M), read-out: eEF2K_C_PThr56 pIC50 (converted)
T2 construct: in the immortalized epithelial breast cell lines, MCF10A; host or cells: MCF10A immortalized breast epithelial cells
T2 sequence (O00418 1-725): T1 sequence (O00418 1-725)
Protocol: In this assay, 2.5 mM 2-deoxyglucose was used to deplete intracellular ATP and activate 5′ adenosine monophosphate-activated protein kinase (AMPK) in the immortalized epithelial breast cell lines, MCF10A. MCF 10A cells were purchased from ATCC (CRL-10317).
MCF10A cells are seeded at a density of 1.25×10^5 Cells/ml at 100 μl/well in a 96-well plate and incubated for 24 hours (37° C., 5% CO2). Compound is added for 1 hour, and cell are stimulated with 2.5 mM of 2-deoxy-glucose for 4 hours. Medium is then removed, and cells are lysed in an ice-cold buffer M-PER (Thermo Scientific, 78501), containing protease and phosphatase inhibitors. P-EF2 levels are determined in these lysates using the P-EF2 AlphaLISA described above.

Compound CC1c2cccc(c2F)Nc2cc(ccn2)-c2cnc(nc2)NCCCNC(=O)C2(CC2)N2CCN1CC2 (single isomer, unassigned) [Compound 11] has an IC50 [1] of 2.75e-09 M and an IC50 [2] of 2.88e-07 M.

Compound CC1c2cccc(c2F)Nc2cc(ccn2)-c2cnc(nc2)NCCCNC(=O)C2(CC2)N2CCN1CC2 (single isomer, unassigned) [Compound 12] has an IC50 [1] of 1.45e-07 M and an IC50 [2] of over 1e-05 M.

CC1c2cccc(c2)Nc2cc(ccn2)-c2cnc(nc2)NCCCNC(=O)C2(CC2)N2CCN1CC2 (single isomer, unassigned) [Compound 22] gave an IC50 [1] of about 1.05e-08 M and an IC50 [2] of 3.63e-07 M.

O=C1CN2CCN(CC2)Cc2cccc(c2)Nc2cc(ccn2)-c2cnc(nc2)C2CCCN2CCN1 (single isomer, unassigned) [Compound 138] was tested, and the IC50 [1] was about 1.58e-06 M.

Compound O=C1CN2CCN(CC2)Cc2cccc(c2)Nc2cc(ccn2)-c2cnc(nc2)C2CCCN2CCN1 (single isomer, unassigned) [Compound 139] has an IC50 [1] of 7.59e-06 M and an IC50 [2] of over 1e-05 M.

For O=C1NCCCNc2ncc(cn2)-c2ccnc(c2)Nc2cccc(c2F)CN2CCN(CC2)C12CC2 [Compound 20], the IC50 [1] was 3.98e-09 M and the IC50 [2] was 1.66e-07 M.

O=C1CN2CCN(CC2)Cc2cccc(c2)Nc2cc(ccn2)-c2cnc(nc2)N2CCC2CCN1 (centres unmarked) [Compound 49] was tested, and the IC50 [1] was 2.51e-05 M and the IC50 [2] was over 1e-05 M.

O=C1CN2CCN(CC2)Cc2cc(ccc2F)Nc2cc(ccn2)-c2cnc(nc2)N2CC(O)CC2CCN1 (centres unmarked) [Compound 50] gave an IC50 [1] of 1.02e-08 M and an IC50 [2] of 3.55e-07 M.

For O=C1CN2CCN(CC2)Cc2cc(ccn2)Nc2cc(ccn2)-c2cnc(nc2)N2CC(O)CC2CCN1 (centres unmarked) [Compound 51], the IC50 [2] was about 1e-05 M.

Compound CC1c2cccc(c2F)Nc2cc(ccn2)-c2cnc(nc2)N2CC(O)CC2CCNC(=O)C2(CC2)N2CCN1CC2 (centres unmarked) [Compound 52] has an IC50 [1] of 5.37e-09 M and an IC50 [2] of 7.59e-08 M.

Work on O=C1NCCC2CC(O)CN2c2ncc(cn2)-c2ccnc(c2)Nc2cccc(c2)CN2CCN(CC2)C12COC2 (centres unmarked) [Compound 63] yielded an IC50 [1] of 1.95e-08 M and an IC50 [2] of 1.74e-06 M.

With O=C1NCCC2CC(O)CN2c2ncc(cn2)-c2ccnc(c2)Nc2cccc(c2)CN2CCN(CC2)C12COC2 (centres unmarked) [Compound 64] the IC50 [1] was 5.13e-09 M and the IC50 [2] was 3.89e-07 M.

Compound CN1CCCNc2ccc(cn2)-c2ccnc(c2)Nc2cccc(c2)CN2CCN(CC2)CC1=O [Compound 69] has an IC50 [1] of 1.41e-05 M and an IC50 [2] of over 3.02e-05 M.

In the case of N#CC1CC2CCNC(=O)C3(CC3)N3CCN(CC3)Cc3cccc(c3)Nc3cc(ccn3)-c3cnc(nc3)N2C1 (centres unmarked) [Compound 79], the IC50 [1] is reported as 9.77e-08 M and the IC50 [2] is reported as 1.15e-06 M.

With O=C1CN2CCN(CC2)Cc2cccc(c2)Nc2cc(ccn2)-c2cnc(nc2)N2CC(F)CC2CCN1 (centres unmarked) [Compound 80] the IC50 [1] was 1e-08 M and the IC50 [2] was 6.31e-07 M.

Work on O=C1CN2CCN(CC2)Cc2cccc(c2)Nc2cc(ccn2)-c2cnc(nc2)N2CC=CC2CCN1 (centres unmarked) [Compound 81] yielded an IC50 [1] of 4.9e-09 M and an IC50 [2] of 3.09e-07 M.

[N-]=[N+]=N[C@@H]1C[C@H]2CCNC(=O)CN3CCN(CC3)Cc3cccc(c3)Nc3cc(ccn3)-c3cnc(nc3)N2C1 [Compound 82] showed an IC50 [1] of 1.86e-08 M and an IC50 [2] of 7.08e-07 M.

With NC1CC2CCNC(=O)C3(CC3)N3CCN(CC3)Cc3cccc(c3)Nc3cc(ccn3)-c3cnc(nc3)N2C1 (centres unmarked) [Compound 85] the IC50 [1] was 2.75e-08 M and the IC50 [2] was 1.1e-06 M.

With O=C1NCCCNc2ncc(cn2)-c2ccnc(c2)Nc2cccc(c2F)OC2CCN(CC2)C12CC2 [Compound 89] the IC50 [1] was about 4.47e-09 M and the IC50 [2] was 3.24e-07 M.

Compound O=C1CN2CCC(CC2)Oc2cccc(c2F)Nc2cc(ccn2)-c2cnc(nc2)NCCCN1 [Compound 91] has an IC50 [1] of 1.35e-08 M and an IC50 [2] of 7.24e-07 M.

In the case of O=C1CN2CC(C2)Oc2cccc(c2)Nc2cc(ccn2)-c2cnc(nc2)NCCCN1 [Compound 92], the IC50 [1] is reported as 1.26e-07 M and the IC50 [2] is reported as 1.17e-06 M.

Work on O=C1CN2CCC(C2)Oc2cccc(c2)Nc2cc(ccn2)-c2cnc(nc2)NCCCN1 (centres unmarked) [Compound 93] yielded an IC50 [1] of 7.94e-08 M and an IC50 [2] of 6.31e-07 M.

For O=C1CN2CCCC(CC2)Oc2cccc(c2)Nc2cc(ccn2)-c2cnc(nc2)NCCCN1 (centres unmarked) [Compound 94], the IC50 [1] was 6.61e-08 M and the IC50 [2] was 6.76e-07 M.

Work on O=C1NCCCNc2ncc(cn2)-c2ccnc(c2)Nc2cccc(c2)OC2CCN(CC2)C12CC2 [Compound 95] yielded an IC50 [1] of 6.76e-09 M and an IC50 [2] of about 6.46e-07 M.

Work on O=C1NCCC2CC(O)CN2c2ncc(cn2)-c2ccnc(c2)Nc2cccc(c2F)OC2CCN(CC2)C12CC2 (centres unmarked) [Compound 96] yielded an IC50 [1] of 3.98e-09 M and an IC50 [2] of 8.13e-08 M.

For O=C1NCCC2CC(O)CN2c2ncc(cn2)-c2ccnc(c2)Nc2cccc(c2)OC2CCN(CC2)C12CC2 (centres unmarked) [Compound 97], the IC50 [1] was 1.82e-09 M and the IC50 [2] was 3.31e-07 M.

Compound O=C1CN2CCC(CC2)Oc2cccc(c2)Nc2cc(ccn2)-c2cnc(nc2)N2CC(O)CC2CCN1 (centres unmarked) [Compound 99] has an IC50 [1] of 3.09e-08 M and an IC50 [2] of 1.07e-06 M.

For CN1c2cccc(c2)Nc2cc(ccn2)-c2cnc(nc2)NCCCNC(=O)C2(CC2)N2CCC1CC2 [Compound 102], the IC50 [1] was 8.13e-08 M and the IC50 [2] was 1.32e-06 M.

CN1c2cccc(c2F)Nc2cc(ccn2)-c2cnc(nc2)NCCCNC(=O)C2(CC2)N2CCC1CC2 [Compound 103] was tested, and the IC50 [1] was 1.91e-07 M and the IC50 [2] was 1.62e-06 M.

CN1c2cccc(c2F)Nc2cc(ccn2)-c2cnc(nc2)N2CC(O)CC2CCNC(=O)C2(CC2)N2CCC1CC2 (centres unmarked) [Compound 105] showed an IC50 [2] of 7.94e-07 M.

For CC(=O)NCCCCC1C(=O)NCCCNc2ncc(cn2)-c2ccnc(c2)Nc2cccc(c2)CN2CCN1CC2 (centres unmarked) [Compound 109], the IC50 [1] was 3.55e-07 M and the IC50 [2] was over 1e-05 M.

For NCCCCC1C(=O)NCCCNc2ncc(cn2)-c2ccnc(c2)Nc2cccc(c2)CN2CCN1CC2 (centres unmarked) [Compound 113], the IC50 [2] was 5.5e-06 M.

CC(=O)NCCCOCC1CN2CCN1Cc1cccc(c1)Nc1cc(ccn1)-c1cnc(nc1)NCCCNC(=O)C2 (centres unmarked) [Compound 115] showed an IC50 [1] of 1.51e-07 M and an IC50 [2] of 4.37e-07 M.

Work on O=C1CN2CCN(CC2)Cc2cccc(c2)Nc2cc(ccn2)-c2cnc(nc2)NC(CC2CC2)CCN1 (centres unmarked) [Compound 125] yielded an IC50 [1] of 5.75e-06 M and an IC50 [2] of over 1e-05 M.

In the case of COCCN1CCNC(=O)CN2CCN(CC2)Cc2cccc(c2)Nc2cc(ccn2)-c2cnc(nc2)C1 [Compound 129], the IC50 [1] is reported as 2.69e-05 M and the IC50 [2] is reported as over 1e-05 M.

For CC1NCCNC(=O)CN2CCN(CC2)Cc2cccc(c2)Nc2cc(ccn2)-c2cnc1nc2 (centres unmarked) [Compound 133], the IC50 [1] was over 3.02e-05 M and the IC50 [2] was about 1e-05 M.

For CC1NCCNC(=O)CN2CCN(CC2)Cc2cccc(c2)Nc2cc(ccn2)-c2cnc1nc2 (centres unmarked) [Compound 134], the IC50 [1] was 1.12e-05 M and the IC50 [2] was over 1e-05 M.

With O=C1CN2CCN(CC2)Cc2cccc(c2)Nc2cc(ccn2)-c2ccc(nc2)N2CCCC2CCN1 (centres unmarked) [Compound 141] the IC50 [2] was about 3.63e-06 M.

With O=C1CN2CCN(CC2)Cc2cccc(c2)Nc2cc(ccn2)-c2ccc(nc2)CNCCN1 [Compound 145] the IC50 [1] was about 5.5e-06 M and the IC50 [2] was over 1e-05 M.

Compound CCCN1CCNC(=O)CN2CCN(CC2)Cc2cccc(c2)Nc2cc(ccn2)-c2ccc(nc2)C1 [Compound 147] has an IC50 [1] of 3.98e-07 M and an IC50 [2] of 1.05e-06 M.

Compound CC(=O)NCCCOCC1CN2CCN1Cc1cccc(c1)Nc1cc(ccn1)-c1cnc(nc1)NCCCNC(=O)C2 (centres unmarked) [Compound 149] has an IC50 [1] of 6.31e-06 M and an IC50 [2] of over 1e-05 M.
